“And” between values parts separate entries of the source, which are not always exact repeats. Equal entries are not always repeated.
What was measured:
WBCs = test: Immobilization of cells: recovery rate of cells on SA (streptavidin) plate or untreated plate (Example 3); type: cell-based
Description: The following applies for modular description of the compounds below: X=hydrophobic moiety, […]=fluorescein In the following experiment, the recovery rate of cells was determined.

MDAs in WBCs = test: Immobilization of cells: recovery rate of MDAs spiked in WBCs on SA-plate (Example 3); type: cell-based
Description: The following applies for modular description of the compounds below:
X=hydrophobic moiety, Y=PEG2000, Z=Biotin-TEG, F=Fluos=fluorescein
In the following experiment, the recovery rate of cells was determined.

5′-CholesterylTEG-CholesterylTEG-PEG2000-Fluos-BiotinTEG-3′ [29.891180]
Recovery rate treated cells (SA-plate) (WBCs; 2.16 μg/2 × 10e6 WBCs): 78.6% | Recovery rate treated cells (SA-plate) (WBCs; 21.6 μg/2 × 10e6 WBCs): 68.6% | Recovery rate treated cells (SA-plate) (WBCs; 216 μg/2 × 10e6 WBCs): 50.1% | Recovery rate treated cells (SA-plate) (WBCs; 5 × 10e5 WBCs (MDA spiking experiment)): 70.0% and 70.8% | Recovery rate treated cells (SA-plate) (WBCs; 10e6 WBCs (MDA spiking experiment)): 69.4% | Recovery rate treated cells (SA-plate) (WBCs; 200 μl Zellsus.): 67.6% and 71.9% | Recovery rate treated cells (SA-plate) (WBCs; 400 μl Zellsus.): 78.4% and 84.1% | Recovery rate treated cells (SA-plate) (WBCs; 10 min 4° C.): 81.6% | Recovery rate treated cells (SA-plate) (WBCs; 10 min RT): 88.3% | Recovery rate treated cells (SA-plate) (WBCs; 800 μl Zellsus.): 81.1% and 86.4% | Recovery rate treated cells (SA-plate) (WBCs; 60 min 4° C.): 81.7% | Recovery rate treated cells (SA-plate) (WBCs; 60 min RT): 85.5% | Recovery rate treated cells (untreated-plate) (WBCs; cells treated with compound, untreated plate): 56.7% | Recovery rate treated cells (SA-plate) (MDAs in WBCs; 10e4 MDAs in WBCs): 99.0% | Recovery rate treated cells (SA-plate) (MDAs in WBCs; 20e3 MDAs in WBCs): 102.0% | Recovery rate treated cells (SA-plate) (MDAs in WBCs; 40e3 MDAs in WBCs): 102.0%

From US11965886B2, “Method of immobilizing a cell on a support using compounds comprising a polyethylene glycol moiety” (Roche Diagnostics Operations, Inc., priority 2013, dated 2024)
